Test results from BindingDB's records for doi:10.1021/jm800138h (Gsk, 2008).

Assays:
Assay in all cases: Enzyme Inhibition Assay
Cathepsin D = Cathepsin D (Homo sapiens, UniProt P07339)
Procedure: (§1) Enzyme activity and inhibition were assayed using a fluorescent FAM-[SEVNLDAEFK]-TAMRA substrate. Control reactions with no enzyme were included in each assay. Quantification of substrate cleavage was assessed using an LJL analyst spectrophotometer (485nm excitation, 535nm emission).

Beta-secretase 2 = target: T1, Beta-secretase 2 (Homo sapiens, UniProt Q9Y5Z0); details: pH 4.5; 22 °C
T1 sequence (Q9Y5Z0 whole entry): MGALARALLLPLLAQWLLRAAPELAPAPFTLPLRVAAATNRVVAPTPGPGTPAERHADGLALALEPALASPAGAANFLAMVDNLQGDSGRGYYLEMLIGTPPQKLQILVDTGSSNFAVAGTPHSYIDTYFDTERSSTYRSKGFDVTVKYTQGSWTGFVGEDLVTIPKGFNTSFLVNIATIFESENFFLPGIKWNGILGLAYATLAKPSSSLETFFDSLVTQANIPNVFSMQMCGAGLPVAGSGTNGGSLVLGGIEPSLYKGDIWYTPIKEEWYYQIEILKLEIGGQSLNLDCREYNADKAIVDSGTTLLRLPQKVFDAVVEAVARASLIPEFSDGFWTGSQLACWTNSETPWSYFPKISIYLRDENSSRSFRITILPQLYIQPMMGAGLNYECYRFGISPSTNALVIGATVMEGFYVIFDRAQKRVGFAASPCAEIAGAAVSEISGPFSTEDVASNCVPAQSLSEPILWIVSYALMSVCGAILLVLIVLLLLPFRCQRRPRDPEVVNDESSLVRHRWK
Procedure: as §1

Beta-secretase 1 = Beta-secretase 1 (Homo sapiens, UniProt P56817); details: pH 4.5; 22 °C
Procedure: as §1

Chain of Cathepsin D (P07339 65-162 limits assumed): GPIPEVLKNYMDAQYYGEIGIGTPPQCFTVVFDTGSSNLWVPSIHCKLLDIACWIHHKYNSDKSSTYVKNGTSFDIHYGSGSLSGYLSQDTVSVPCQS
Chain of Cathepsin D (P07339 169-412 limits assumed): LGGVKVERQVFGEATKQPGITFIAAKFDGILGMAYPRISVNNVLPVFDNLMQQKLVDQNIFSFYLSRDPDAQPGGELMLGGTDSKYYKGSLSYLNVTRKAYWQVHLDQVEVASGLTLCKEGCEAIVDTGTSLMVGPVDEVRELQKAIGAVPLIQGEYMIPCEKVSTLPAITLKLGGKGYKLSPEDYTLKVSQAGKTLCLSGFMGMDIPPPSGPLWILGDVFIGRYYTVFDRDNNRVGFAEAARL
Chain of Beta-secretase 1 (P56817 whole entry): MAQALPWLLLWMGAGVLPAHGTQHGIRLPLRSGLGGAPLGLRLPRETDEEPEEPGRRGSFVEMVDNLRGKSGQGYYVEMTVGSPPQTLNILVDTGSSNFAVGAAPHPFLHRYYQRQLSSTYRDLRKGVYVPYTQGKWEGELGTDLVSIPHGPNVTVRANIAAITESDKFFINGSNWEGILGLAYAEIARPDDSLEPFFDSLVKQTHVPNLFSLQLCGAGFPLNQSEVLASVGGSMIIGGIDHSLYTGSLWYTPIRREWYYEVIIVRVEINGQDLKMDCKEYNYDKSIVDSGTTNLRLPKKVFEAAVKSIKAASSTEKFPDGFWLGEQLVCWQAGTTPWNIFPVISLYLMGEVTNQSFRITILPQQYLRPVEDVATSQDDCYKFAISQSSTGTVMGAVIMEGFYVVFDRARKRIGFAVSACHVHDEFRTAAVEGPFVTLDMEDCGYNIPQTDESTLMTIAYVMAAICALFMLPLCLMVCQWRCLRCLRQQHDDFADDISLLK

CCNc1cc(C(=O)N[C@@H](Cc2ccccc2)[C@H](O)CNC2CCCCC2)cc(N2CCCCS2(=O)=O)c1 [N-[(2S,3R)-4-(cyclohexylamino)-3-hydroxy-1-phenylbutan-2-yl]-3-(1,1-dioxo-1,2-thiazinan-2-yl)-5-(ethylamino)benzamide]
IC50 (Cathepsin D): 2340 nM | IC50 (Beta-secretase 2): 4370 nM | IC50 (Beta-secretase 1): 69 nM

CCNc1cc(C(=O)N[C@@H](Cc2ccccc2)[C@H](O)CNC(C)(C)CCCC(C)C)cc(N2CCCCS2(=O)=O)c1 [N-[(2S,3R)-4-[(2,6-dimethylheptan-2-yl)amino]-3-hydroxy-1-phenylbutan-2-yl]-3-(1,1-dioxo-1,2-thiazinan-2-yl)-5-(ethylamino)benzamide]
IC50 (Cathepsin D): 5250 nM | IC50 (Beta-secretase 2): 7940 nM | IC50 (Beta-secretase 1): 30 nM

CCNc1cc(C(=O)N[C@@H](Cc2ccccc2)[C@H](O)CNC)cc(N2CCCCS2(=O)=O)c1 [3-(1,1-dioxo-1,2-thiazinan-2-yl)-5-(ethylamino)-N-[(2S,3R)-3-hydroxy-4-(methylamino)-1-phenylbutan-2-yl]benzamide]
IC50 (Cathepsin D): > 100000 nM | IC50 (Beta-secretase 1): 140 nM

CCc1cn2c3c(cc(C(=O)N[C@@H](Cc4ccccc4)[C@H](O)CNC(C)(C)CCCC(C)C)cc13)N(C)S(=O)(=O)CC2 [N-[(2S,3R)-4-[(2,6-dimethylheptan-2-yl)amino]-3-hydroxy-1-phenylbutan-2-yl]-3-ethyl-9-methyl-10,10-dioxo-10-thia-1,9-diazatricyclo[6.4.1.0^{4,13}]trideca-2,4(13),5,7-tetraene-6-carboxamide]
IC50 (Cathepsin D): 1000 nM | IC50 (Beta-secretase 2): 114 nM | IC50 (Beta-secretase 1): 5 nM

CCc1cn2c3c(cc(C(=O)N[C@@H](Cc4ccccc4)[C@H](O)CNC4CCCCC4)cc13)N(C)S(=O)(=O)CC2 [BMCL193669 Compound 26]
IC50 (Cathepsin D): 660 nM | IC50 (Beta-secretase 2): 210 nM | IC50 (Beta-secretase 1): 9 nM
